Legend:
Format in all cases: in vivo
powdery mildew in wheat [1] = test: Curative (C) activity against powdery mildew in wheat; details: Triticum aestivum, concentration 400 ppm
Method: (§1) In further tests, the residual (R) and curative (C) activities of various compounds against powdery mildew in barley and wheat was determined at various concentrations of the test compounds.

powdery mildew in barley [2] = test: Residual (R) activity against powdery mildew in barley; details: Hordeum vulgare
Method: as §1

powdery mildew in wheat [3] = test: Residual (R) activity against powdery mildew in wheat; details: Triticum aestivum, concentration 400 ppm
Method: as §1

powdery mildew in barley [4] = test: Curative (C) activity against powdery mildew in barley; details: Hordeum vulgare, concentration 100 ppm
Method: as §1

| SMILES | activity at 400 ppm (powdery mildew in wheat [1]) [%] | activity at 100 ppm (powdery mildew in barley [2]; concentration 100 ppm) [%] | activity at 400 ppm (powdery mildew in wheat [3]) [%] | activity at 100 ppm (powdery mildew in barley [4]) [%] | activity at 400 ppm (powdery mildew in barley [2]; concentration 400 ppm) [%] |
| --- | --- | --- | --- | --- | --- |
| CCCOc1cc2c(-c3c(Cl)cccc3Cl)[n+]([O-])ccc2cc1OCC [Example 6, 1-(2,6-Dichlorophenyl)-6-ethoxy-7-propoxyisoquinoline N-oxide] | 68.5 | 100 | 98.8 | 100 | – |
| CCCOc1cc2c(cc1OCC)CC[N+]([O-])=C2c1ccccc1[N+](=O)[O-] [Example 7, 1-(2-nitrophenyl)-3,4-dihydro-6-ethoxy-7-propoxyisoquinoline-N-oxide] | 23 | – | 94 | 100 | 75 |

— EP0491441A1, “Fungicidal isoquinoline derivatives” (SHELL INTERNATIONALE RESEARCH MAATSCHAPPIJ B.V., priority 1990, dated 1992)
